Reference: patent US11498920B2, “4-(1H-imidazol-5-yl)-1H-pyrrolo[2, 3-b] pyridines for use in the treatment of leukaemias, lymphomas and solid tumors” (MASARYKOVA UNIVERZITA, priority 2018, dated 2022)

Assays:
Assay type in all cases: cell-based
OVCAR4 = assay: Cytotoxicity on panel of cell lines, TMRE viability (Example II.2); conditions: Homo sapiens, OVCAR-4, 24 hours, mean, control = 1, read-out: cell viability relative to control, OVCAR4 (ovarian cancer)
Experimental: (§1) The leukemia and lymphoma-derived cell lines [MEC-1 cell line (derived from chronic lymphocytic leukemia—CLL), Nalm-16 (acute lymphocytic leukemia—ALL), K562 (chronic myeloid leukemia—CML), HL-60 (acute myeloid leukemia—AML), Maver-1 and Mino (mantle cell lymphoma—MCL), BL-41 (Burkitt lymphoma—BL), WSU-NHL (follicular lymphoma—FL), SUDHL (diffuse large B-cell lymphoma—DLBCL)], primary CLL cells and nonmalignant control primary cells were cultured in suspension in flasks under the following conditions: RPMI 1640 medium (Hyclone) supplemented with 10% fetal bovine serum (FBS, Gibco) and 1% penicillin/streptomycin (Life Technologies), 37° C., 5% CO2 and 95% relative humidity, with optimal culture cell density 5×10^6 cells/mL in case of primary cells and 0.5-1×10^6 cells/mL in case of cell lines. The adherent cell lines [A375 (derived from malignant melanoma), MDA-MB-231 and MCF-7 (breast cancer), MIA-PA-CA and PANC1 (pancreatic cancer), PC3 (prostate cancer), OVCAR4 (ovarian cancer) and HEPG2 (hepatocellular carcinoma)] were cultured on plates under the same conditions using RPMI1640 or DMEM medium (Gibco) according to instructions provided by the distributor (DSMZ/ATCC).
(§2) The tested cell lines were incubated with inhibitors at 30 μM concentration or corresponding amount of solvent (DMSO, Sigma Aldrich) in standard culture conditions, seeded as 10^5 cells/500 μl per well in a 24-well plate. Experiments were performed in technical duplicates and 2-3 biological repetitions per cell line. Viability of cells was assessed after 24 hours.
(§3) Relative values are presented as a mean value, showing ratio to the effect of control. Relative value <1=lower viability than control condition.

MIA-PA-CA = assay: as above; conditions: Homo sapiens, MIA PaCa-2, 24 hours, mean, control = 1, read-out: cell viability relative to control, MIA-PA-CA (pancreatic cancer)
Experimental: as §1, §2, §3

MCF-7 = assay: as above; conditions: Homo sapiens, MCF7, 24 hours, mean, control = 1, read-out: cell viability relative to control, MCF-7 (breast cancer)
Experimental: as §1, §2, §3

Maver1 = assay: as above; conditions: Homo sapiens, 24 hours, mean, control = 1, read-out: cell viability relative to control, Maver1 (MCL)
Experimental: as §1, §2, §3

Mino = assay: as above; conditions: Homo sapiens, 24 hours, mean, control = 1, read-out: cell viability relative to control, Mino (MCL)
Experimental: as §1, §2, §3

WSU-NHL = assay: as above; conditions: Homo sapiens, 24 hours, mean, control = 1, read-out: cell viability relative to control, WSU-NHL (FL)
Experimental: as §1, §2, §3

HEPG2 = assay: as above; conditions: Homo sapiens, 24 hours, mean, control = 1, read-out: cell viability relative to control, HEPG2 (hepatocellular carcinoma)
Experimental: as §1, §2, §3

A375 = assay: as above; conditions: Homo sapiens, A-375, 24 hours, mean, control = 1, read-out: cell viability relative to control, A375 (melanoma)
Experimental: as §1, §2, §3

[1] = tested on: Maver-1 cells (mantle cell lymphoma); assay: Cytotoxicity, TMRE flow cytometry viability, Maver-1 cells (Example II.1); conditions: Homo sapiens, Maver1, 24 hours, TMRE positive cells normalized to control, ratio to PF670462, <1 = higher cytotoxicity than PF670462, read-out: Viability of cells, Compound of formula I (100 μM), relative to PF670462 (100 μM), Maver-1 cells (mantle cell lymphoma)
primary CLL cells = assay: Cytotoxicity, TMRE flow cytometry viability, primary CLL cells (Example II.1); conditions: Homo sapiens, CLL cell, 6 hours, TMRE positive cells normalized to control, ratio to PF670462, <1 = higher cytotoxicity than PF670462, read-out: Viability of cells, Compound of formula I (100 μM), relative to PF670462 (100 μM), CLL primary cells
primary CLL = assay: Cytotoxicity on panel of cell lines, TMRE viability (Example II.2); conditions: Homo sapiens, 24 hours, mean, control = 1, read-out: cell viability relative to control, primary CLL
Experimental: as §1, §2, §3

Nalm16 = assay: as above; conditions: 24 hours, mean, control = 1, read-out: cell viability relative to control, Nalm16 (ALL)
Experimental: as §1, §2, §3

MEC-1 = assay: as above; conditions: Homo sapiens, MEC1, 24 hours, mean, control = 1, read-out: cell viability relative to control, MEC-1 (CLL)
Experimental: as §1, §2, §3

BL-41 = assay: as above; conditions: Homo sapiens, 24 hours, mean, control = 1, read-out: cell viability relative to control, BL-41 (BL)
Experimental: as §1, §2, §3

SUDHL = assay: as above; conditions: 24 hours, mean, control = 1, read-out: cell viability relative to control, SUDHL (DLBCL)
Experimental: as §1, §2, §3

PANC1 = assay: as above; conditions: Homo sapiens, PANC-1, 24 hours, mean, control = 1, read-out: cell viability relative to control, PANC1 (pancreatic cancer)
Experimental: as §1, §2, §3

PC3 = assay: as above; conditions: Homo sapiens, PC-3, 24 hours, mean, control = 1, read-out: cell viability relative to control, PC3 (prostate cancer)
Experimental: as §1, §2, §3

HL60 = assay: as above; conditions: Homo sapiens, HL-60, 24 hours, mean, control = 1, read-out: cell viability relative to control, HL60 (AML)
Experimental: as §1, §2, §3

## Cn1cnc(Cn2cnc(-c3ccc(F)cc3)c2-c2ccnc3[nH]ccc23)n1 [Preparative Example 106, 4-(4-(4-fluorophenyl)-1-((1-methyl-1H-1,2,4-triazol-3-yl)methyl)-1H-imidazol-5-yl)-1H-pyrrolo[2,3-b]pyridine]
OVCAR4
  viability at 30 µM: 89%
MIA-PA-CA
  viability at 30 µM: 68%
MCF-7
  viability at 30 µM: 65%
Maver1
  viability at 30 µM: 54%
Mino
  viability at 30 µM: 85%
WSU-NHL
  viability at 30 µM: 82%
HEPG2
  viability at 30 µM: 24%
A375
  viability at 30 µM: 79%
[1]
  viability at 100 µM: 7%

## Fc1ccc(-c2ncn(Cc3ccco3)c2-c2ccnc3[nH]ccc23)cc1 [Preparative Example 81, 4-(4-(4-fluorophenyl)-1-(furan-2-ylmethyl)-1H-imidazol-5-yl)-1H-pyrrolo[2,3-b]pyridine]
Primary CLL cells
  viability at 100 µM: 60%
Primary CLL
  viability at 30 µM: 77%
MCF-7
  viability at 30 µM: 68%
Maver1
  viability at 30 µM: 51%
Mino
  viability at 30 µM: 37%
WSU-NHL
  viability at 30 µM: 68%
HEPG2
  viability at 30 µM: 58%
[1]
  viability at 100 µM: 10%

## Fc1ccc(-c2ncn(Cc3ccoc3)c2-c2ccnc3[nH]ccc23)cc1 [Preparative Example 23]
Primary CLL cells
  viability at 100 µM: 37%
Primary CLL
  viability at 30 µM: 68%
Nalm16
  viability at 30 µM: 20%
MEC-1
  viability at 30 µM: 84%
MCF-7
  viability at 30 µM: 31%
BL-41
  viability at 30 µM: 57%
Maver1
  viability at 30 µM: 71%
SUDHL
  viability at 30 µM: 67%
Mino
  viability at 30 µM: 65%
[1]
  viability at 100 µM: 46%

## Fc1ccc(-c2ncn(-c3ccccc3)c2-c2ccnc3[nH]ccc23)cc1 [Preparative Example 47]
Primary CLL cells
  viability at 100 µM: 78%
OVCAR4
  viability at 30 µM: 76%
Primary CLL
  viability at 30 µM: 81%
Nalm16
  viability at 30 µM: 57%
PANC1
  viability at 30 µM: 83%
BL-41
  viability at 30 µM: 73%

## COCCCn1cnc(-c2ccc(F)cc2)c1-c1ccnc2[nH]ccc12 [Preparative Example 24, 4-(4-(4-fluorophenyl)-1-(3-methoxypropyl)-1H-imidazol-5-yl)-1H-pyrrolo[2,3-b]pyridine]
Primary CLL cells
  viability at 100 µM: 30%
Primary CLL
  viability at 30 µM: 85%
Nalm16
  viability at 30 µM: 75%
BL-41
  viability at 30 µM: 76%
Maver1
  viability at 30 µM: 72%
Mino
  viability at 30 µM: 80%

## c1cc(-c2c(C3CCCCC3)ncn2C2CCCCC2)c2cc[nH]c2n1 [Preparative Example 67, 4-(1,4-dicyclohexyl-1H-imidazol-5-yl)-1H-pyrrolo[2,3-b]pyridine]
Primary CLL cells
  viability at 100 µM: 66%
Nalm16
  viability at 30 µM: 40%
BL-41
  viability at 30 µM: 76%
Maver1
  viability at 30 µM: 73%
Mino
  viability at 30 µM: 72%
WSU-NHL
  viability at 30 µM: 84%
A375
  viability at 30 µM: 55%
[1]
  viability at 100 µM: 71%

## Fc1ccc(-c2ncn(CC3CCCO3)c2-c2ccnc3[nH]ccc23)cc1 (stereo not shown) [Preparative Example 27, 4-(4-(4-fluorophenyl)-1-((tetrahydrofuran-2-yl)methyl)-1H-imidazol-5-yl)-1H-pyrrolo[2,3-b]pyridine]
OVCAR4
  viability at 30 µM: 84%
Maver1
  viability at 30 µM: 78%
HEPG2
  viability at 30 µM: 85%

## Fc1ccc(-c2ncn(C3CCCCC3)c2-c2ccnc3[nH]cc(F)c23)cc1 [Preparative Example 149, 4-(1-cyclohexyl-4-(4-fluorophenyl)-1H-imidazol-5-yl)-3-fluoro-1H-pyrrolo[2,3-b]pyridine]
Primary CLL cells
  viability at 100 µM: 11%
Primary CLL
  viability at 30 µM: 68%
MIA-PA-CA
  viability at 30 µM: 87%
MEC-1
  viability at 30 µM: 33%
MCF-7
  viability at 30 µM: 65%
BL-41
  viability at 30 µM: 22%
Maver1
  viability at 30 µM: 1%
SUDHL
  viability at 30 µM: 21%
Mino
  viability at 30 µM: 1%
WSU-NHL
  viability at 30 µM: 26%
HEPG2
  viability at 30 µM: 77%
PC3
  viability at 30 µM: 86%
HL60
  viability at 30 µM: 79%
[1]
  viability at 100 µM: 0%

## Fc1ccc(-c2ncn(C3CCCCC3)c2-c2ccnc3[nH]ccc23)cc1F [Preparative Example 173]
Primary CLL cells
  viability at 100 µM: 2%
Primary CLL
  viability at 30 µM: 62%
MIA-PA-CA
  viability at 30 µM: 74%
MEC-1
  viability at 30 µM: 9%
MCF-7
  viability at 30 µM: 52%
BL-41
  viability at 30 µM: 5%
Maver1
  viability at 30 µM: 0%
SUDHL
  viability at 30 µM: 3%
Mino
  viability at 30 µM: 1%
WSU-NHL
  viability at 30 µM: 16%
HEPG2
  viability at 30 µM: 58%
HL60
  viability at 30 µM: 77%
[1]
  viability at 100 µM: 1%

## CS(=O)(=O)N[C@H]1CC[C@@H](n2cnc(-c3ccc(F)cc3)c2-c2ccnc3[nH]ccc23)CC1 [Preparative Example 74, N-(cis-4-(4-(4-fluorophenyl)-5-(1H-pyrrolo[2,3-b]pyridin-4-yl)-1H-imidazol-1-yl)cyclohexyl)methanesulfonamide]
Primary CLL cells
  viability at 100 µM: 73%
Nalm16
  viability at 30 µM: 78%
MCF-7
  viability at 30 µM: 72%
Maver1
  viability at 30 µM: 84%
[1]
  viability at 100 µM: 46%

## Fc1ccc(-c2ncn(C3CCNCC3)c2-c2ccnc3[nH]ccc23)cc1 [Preparative Example 37, 4-(4-(4-fluorophenyl)-1-(piperidin-4-yl)-1H-imidazol-5-yl)-1H-pyrrolo[2,3-b]pyridine]
Primary CLL cells
  viability at 100 µM: 51%
OVCAR4
  viability at 30 µM: 82%
Primary CLL
  viability at 30 µM: 39%
Nalm16
  viability at 30 µM: 50%
PANC1
  viability at 30 µM: 67%
BL-41
  viability at 30 µM: 75%
SUDHL
  viability at 30 µM: 89%

## Fc1ccc(-c2ncn(C3CCCCC3)c2-c2c(F)cnc3[nH]ccc23)cc1 [Preparative Example 147, 4-(1-cyclohexyl-4-(4-fluorophenyl)-1H-imidazol-5-yl)-5-fluoro-1H-pyrrolo[2,3-b]pyridine]
Primary CLL cells
  viability at 100 µM: 8%
OVCAR4
  viability at 30 µM: 69%
Primary CLL
  viability at 30 µM: 37%
MIA-PA-CA
  viability at 30 µM: 45%
MEC-1
  viability at 30 µM: 38%
PANC1
  viability at 30 µM: 67%
MCF-7
  viability at 30 µM: 41%
BL-41
  viability at 30 µM: 21%
Maver1
  viability at 30 µM: 0%
SUDHL
  viability at 30 µM: 1%
Mino
  viability at 30 µM: 1%
WSU-NHL
  viability at 30 µM: 38%
HEPG2
  viability at 30 µM: 41%
PC3
  viability at 30 µM: 57%
HL60
  viability at 30 µM: 84%
A375
  viability at 30 µM: 85%
[1]
  viability at 100 µM: 3%
